# Measurements as given in patent US20070265274A1, “4-(4-METHYLPIPERAZIN-1-YLMETHYL)-N-[4-METHYL-3-(4-PYRIDIN-3-YL)PYRIMIDIN-2-YLAMINO)PHENYL]-BENZAMIDE FOR TREATING MUTATED-RET KINASE ASSOCIATED DISEASES” (priority 2002, published 2007).
# Read-outs that look alike come from different tables or passages of the source.
# What was measured:
# [1] = tested on: PLCγ phosphorylation by RET/PTC; conditions: 250 nM SALT I for 24 h; in comparison with samples without SALT I
# Protocol: To further explore the effect of SALT I on RET kinase activity, pretreatment with SALT I on PLCγ phosphorylation is examined.
# Ret-PTC3 cells are seeded at 10^5 cells/well in 6-well Corning plates. After 3 days, cells are treated with or without doxycycline in the presence of 250 nM of SALT I for 24 h. Cells are rinsed twice with cold (phosphate buffered saline) PBS containing 0.1 mM sodium orthovanadate, and left for 20 minutes in ice-cold RIPA buffer shaking gently at 4° C. Cell lysates are collected by centrifugation at 10,600 g for 20 min at 4° C. Protein assays are performed on aliquots of supernatants by the Coomassie Blue assay (Pierce, Rockford, Ill.). Western blot analysis are performed by running 100 μg of protein on SDS PAGE (5%), transfer to nitrocellulose membrane and probing initially with anti-phospho PLCγ antibody (Cell Signaling) and then with anti-PLCγ (Cell Signaling) for normalization.
# [2] = tested on: NIH3T3 cells expressing constitutively active RET MEN2A (RETC634 mutation); conditions: for % of cell decrease: SALT I 500 nM, 9 days
# Protocol: The RETC634 mutation is the most common germline mutation of the RET kinase occurring in 85% of multiple endocrine neoplasias type 2A. The effect of SALT I on growth of NIH3T3 cells stably expressing a constitutively active form of the RET kinase (RETC634 mutation) is investigated.
# NIH3T3 cells expressing constitutively active RET MEN2A are allowed to plate overnight in 6-well plates. They are then grown in the presence of 1 or 5% serum with SALT I 500 nM or with a vehicle solvent (control) for 9 days, with media changes every 3 days. Cells are counted after harvesting with EDTA/trypsin solution on day 9 after initiation of treatments.
# [3] = tested on: RET/PTC3; conditions: 100 nM SALT I; 25 min at room temperature; γP32-ATP
# Protocol: Cell Line: PCCL3, a rat thyroid cell line, is maintained in H4 complete medium consisting of Coon's medium/F12 high zinc supplemented with 5% FBS, 0.3 mg/ml L-glutamine, 1 mU/ml TSH, 10 μg/ml insulin, 5 μg/ml apo-transferrin, 10 nM hydrocortisone, and penicillin/streptomycin. […] Stable transfections are performed first to establish clonal lines constitutively expressing the transactivator rtTA (composed of a fusion of the rtetR DNA binding domain and the VP16 activation domain). Individual rtTA-expressing clones are then explored for doxycyclin-inducible expression by transient transfection with a luciferase reporter construct under control of a tet-operator.
# Confluent T-75 flasks of RET/PTC3 (PCCL3) cells incubated with or without doxycycline for 24 hours are washed with ice cold PBS containing 0.2 mM sodium ortho-vanadate. […] After the second wash, the reactions are boiled in 35 μl Laemmli buffer for 10 min, the proteins are subjected to SDS-PAGE (7.5%) and their phosphorylation measured by PhosphoImager densitrometry (Molecular Dynamics, Sunnyvale, Calif.) after transfer to nitrocellulose membranes. Protein loading is then normalized to total RET kinase protein determined by Western blot analysis using either the goat polyclonal anti-RET kinase antibody (Santa Cruz) or a mouse monoclonal (University of Cincinnati).
compound,measurement,setting,value
CS(=O)(=O)O.Cc1ccc(NC(=O)c2ccc(CN3CCN(C)CC3)cc2)cc1Nc1nccc(-c2cccnc2)n1 [SALT I],inhibition of phosphorylation of PLCγ,[1],28%
same,% of cell decrease,[2]; 1% serum,42%
same,% of cell decrease,[2]; 5% serum,15%
same,growth of RET kinase-transformed NIH3T3 fibroblasts,[2]; result in words,inhibits the growth
same,inhibition of autophosphorylation of RET/PTC3,[3],40%
